Test results: ChEMBL document CHEMBL1201862, “PubChem BioAssay data set” (2004)
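A five-concentration, 48-hour dose response in 96-well plates underlies each endpoint, interpolated linearly between surrounding concentrations. At the GI50, growth is halved.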 Active and inactive are the calls of the source. Cut-off read from the data, not from the text of the source: active = GI50 up to about 1.1 µM and inactive = higher.

Key:
Test in all cases: growth of human tumour cells (NCI), 48 h
[1] = system: UACC-257
[2] = system: HOP-92
[3] = system: M14
[4] = system: DLD-1
[5] = system: CAKI-1
[6] = system: NCI-H226
[7] = system: SK-OV-3
[8] = system: Malme-3M
[9] = system: RXF 393
[10] = system: ACHN
[11] = system: NCI-H522
[12] = system: A498
[13] = system: OVCAR-4
[14] = system: SNB-75
[15] = system: HCT-15
[16] = system: MDA-MB-231
[17] = system: COLO 205
[18] = system: SNB-19
[19] = system: OVCAR-3
[20] = system: MDA-MB-435

CN(C)C(=S)SN(C)C(=O)Nc1ccccc1
GI50 [1]: 46.1 µM (inactive) | GI50 [2]: 3.5 µM (inactive) | GI50 [3]: 7.46 µM (inactive) | GI50 [4]: 31.1 µM (inactive) | GI50 [5]: 26.1 µM (inactive) | GI50 [6]: 45.8 µM (inactive) | GI50 [7]: > 87.7 µM (inactive) | GI50 [8]: 16.7 µM (inactive) | GI50 [9]: 1.18 µM (inactive) | GI50 [10]: 47.2 µM (inactive) | GI50 [11]: 0.128 µM (active) | GI50 [12]: 3.9 µM (inactive) | GI50 [13]: 5.06 µM (inactive) | GI50 [14]: 28.6 µM (inactive) | GI50 [15]: 22.6 µM | GI50 [16]: 38.9 µM (inactive) | GI50 [17]: 4.48 µM (inactive) | GI50 [18]: 80.2 µM (inactive) | GI50 [19]: 0.618 µM (active) | GI50 [20]: 19.7 µM (inactive)

COc1cccc2c1C(=O)C=CC2=O
GI50 [1]: 15.5 µM (inactive) | GI50 [2]: 1.99 µM (inactive) | GI50 [3]: 8.49 µM (inactive) | GI50 [4]: 7.19 µM (inactive) | GI50 [5]: 7.66 µM (inactive) | GI50 [6]: 19.1 µM (inactive) | GI50 [7]: 21.8 µM (inactive) | GI50 [8]: 15.5 µM (inactive) | GI50 [9]: 6.76 µM (inactive) | GI50 [10]: 4.39 µM (inactive) | GI50 [11]: 2.39 µM (inactive) | GI50 [12]: 16.2 µM (inactive) | GI50 [13]: 1.95 µM (inactive) | GI50 [14]: 14.8 µM (inactive) | GI50 [15]: 7.85 µM | GI50 [16]: 2.15 µM (inactive) | GI50 [17]: 7.06 µM (inactive) | GI50 [18]: 15.5 µM (inactive) | GI50 [19]: 1.85 µM (inactive) | GI50 [20]: 10.1 µM (inactive)

CC[C@@]1(O)C(=O)OCc2c1cc1n(c2=O)Cc2cc3ccccc3nc2-1 [CAMPTOTHECIN]
GI50 [1]: 0.0543 µM (active) | GI50 [2]: 0.0337 µM (active) | GI50 [3]: < 0.0206 µM (active) | GI50 [4]: 0.243 µM (active) | GI50 [5]: 0.0118 µM (active) | GI50 [6]: 0.0179 µM (active) | GI50 [7]: 0.0202 µM (active) | GI50 [8]: 0.174 µM (active) | GI50 [9]: 0.0256 µM (active) | GI50 [10]: < 0.0116 µM (active) | GI50 [11]: 0.0223 µM (active) | GI50 [12]: 0.0322 µM (active) | GI50 [13]: 0.209 µM (active) | GI50 [14]: 0.0272 µM (active) | GI50 [15]: 0.152 µM | GI50 [16]: 0.938 µM (active) | GI50 [17]: 0.286 µM (active) | GI50 [18]: 0.0182 µM (active) | GI50 [19]: 0.177 µM (active) | GI50 [20]: 0.0658 µM (active)
